Laboratory results published in ChEMBL document CHEMBL1201862, “PubChem BioAssay data set” (2004).
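Tested at 5 concentrations; 48 h exposure; 96-well plates; endpoints linearly interpolated, else capped at highest concentration. GI50 = concentration required for 50% inhibition of growth.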 Active and inactive are the calls of the source. Rule as the data show it: active = GI50 up to about 1.1 µM and inactive = higher.

Experiments:
Assay in all cases: NCI tumour cell line growth inhibition, 48 h
NCI-H23 = tested on: NCI-H23
DU-145 = tested on: DU-145
SNB-75 = tested on: SNB-75
PC-3 = tested on: PC-3
786-0 = tested on: 786-0
U-251 = tested on: U-251
NCI-H460 = tested on: NCI-H460
OVCAR-5 = tested on: OVCAR-5
OVCAR-4 = tested on: OVCAR-4
T47D = tested on: T47D
KM12 = tested on: KM12
HCC 2998 = tested on: HCC 2998
SW-620 = tested on: SW-620
IGROV-1 = tested on: IGROV-1
NCI-H226 = tested on: NCI-H226
LOX IMVI = tested on: LOX IMVI
COLO 205 = tested on: COLO 205
UACC-62 = tested on: UACC-62
UO-31 = tested on: UO-31
UACC-257 = tested on: UACC-257

| SMILES | GI50 (NCI-H23) | GI50 (DU-145) | GI50 (SNB-75) | GI50 (PC-3) | GI50 (786-0) | GI50 (U-251) | GI50 (NCI-H460) | GI50 (OVCAR-5) | GI50 (OVCAR-4) | GI50 (T47D) | GI50 (KM12) | GI50 (HCC 2998) | GI50 (SW-620) | GI50 (IGROV-1) | GI50 (NCI-H226) | GI50 (LOX IMVI) | GI50 (COLO 205) | GI50 (UACC-62) | GI50 (UO-31) | GI50 (UACC-257) |
| --- | --- | --- | --- | --- | --- | --- | --- | --- | --- | --- | --- | --- | --- | --- | --- | --- | --- | --- | --- | --- |
| Cc1ccsc1C(=S)Nc1ccc(Cl)c(C(=O)OC(C(C)C)C(C)C)c1 | 13.5 µM (inactive) | 33 µM (inactive) | 24 µM (inactive) | 8.53 µM (inactive) | 19.8 µM (inactive) | 24.4 µM (inactive) | 23.7 µM (inactive) | 57.9 µM (inactive) | 29.1 µM (inactive) | 6.9 µM (inactive) | 20 µM (inactive) | 16.1 µM (inactive) | 18.9 µM (inactive) | 32.3 µM (inactive) | 29 µM (inactive) | 18 µM (inactive) | 12.9 µM (inactive) | 21 µM (inactive) | 13.1 µM (inactive) | 28.4 µM (inactive) |
| O=C1CCCc2cc3c(cc21)CCC3C(=O)O (stereo not given) | > 100 µM (inactive) | > 100 µM (inactive) | > 100 µM (inactive) | > 100 µM (inactive) | > 100 µM (inactive) | > 100 µM (inactive) | > 100 µM (inactive) | > 100 µM (inactive) | > 100 µM (inactive) | > 100 µM (inactive) | > 100 µM (inactive) | > 100 µM (inactive) | > 100 µM (inactive) | > 100 µM (inactive) | > 100 µM (inactive) | > 100 µM (inactive) | > 100 µM (inactive) | > 100 µM (inactive) | > 100 µM (inactive) | > 100 µM (inactive) |
| COC(=O)C(Cc1ccccc1)NC(=O)C(CCC(=O)OCc1ccccc1)NC(=O)OC(C)(C)C (stereo not given) | > 100 µM (inactive) | > 100 µM (inactive) | > 100 µM (inactive) | 81.7 µM (inactive) | > 100 µM (inactive) | > 100 µM (inactive) | 30.5 µM (inactive) | > 100 µM (inactive) | 64 µM (inactive) | > 100 µM (inactive) | 83.9 µM (inactive) | 31 µM (inactive) | 63.8 µM (inactive) | > 100 µM (inactive) | 57.4 µM (inactive) | 30.3 µM (inactive) | > 100 µM (inactive) | > 100 µM (inactive) | 26.1 µM (inactive) | > 100 µM (inactive) |
| CC(C)OC(=O)C(NC(=O)C(CC(=O)OCc1ccccc1)NC(=O)OCc1ccccc1)NC(=O)C1C(C)(C)CCC1(C)C (stereo not given) | 10.2 µM (inactive) | 22.9 µM (inactive) | 2.68 µM (inactive) | 2.8 µM (inactive) | 2.22 µM (inactive) | 2.14 µM (inactive) | 16.7 µM (inactive) | 14.8 µM (inactive) | 3.55 µM (inactive) | 26.5 µM (inactive) | 9.02 µM (inactive) | 24.9 µM (inactive) | 3.23 µM (inactive) | 13.7 µM (inactive) | 7.21 µM (inactive) | 4.56 µM (inactive) | 2.99 µM (inactive) | 20.7 µM (inactive) | 4.84 µM (inactive) | 30.3 µM (inactive) |
| COC(=O)[C@]1(C)[C@H]2C[C@H]3O[C@H]4[C@H](O)[C@@H](O)OC(CC(O)C(C5=CC(=O)OC5)C(C5=CC(=O)OC5)C(O)CC56CCCCC7[C@@H](C)[C@H](C[C@H]8[C@](C)(C(=O)OC)[C@H](O)CC[C@]78C)O[C@H]([C@@H](O)[C@H](O)O5)[C@H]6O)(CCCCC([C@@H]3C)[C@]2(C)CC[C@@H]1O)[C@H]4O (stereo not given in full) | 0.0439 µM (active) | 0.0628 µM (active) | 0.129 µM (active) | 0.065 µM (active) | 0.0318 µM (active) | 0.194 µM (active) | 0.0233 µM (active) | 0.592 µM (active) | 0.147 µM (active) | 0.299 µM (active) | 0.353 µM (active) | 0.655 µM (active) | 0.168 µM (active) | 0.0959 µM (active) | 0.973 µM (active) | 0.0993 µM (active) | 0.338 µM (active) | 0.33 µM (active) | 0.057 µM (active) | 0.244 µM (active) |
| CC1=CCC[C@H]2[C@](C)(CC3=CC(=O)C4SCCSC4C3=O)[C@@H](C)CC[C@]12C (stereo not given in full) | 13.2 µM (inactive) | 24.5 µM (inactive) | 27.7 µM (inactive) | 13.5 µM (inactive) | 18.5 µM (inactive) | 14.5 µM (inactive) | 20 µM (inactive) | 18.6 µM (inactive) | 24.6 µM (inactive) | > 100 µM (inactive) | 29 µM (inactive) | 21.9 µM (inactive) | 17.1 µM (inactive) | 32 µM (inactive) | 15.9 µM (inactive) | 11.2 µM (inactive) | 17.7 µM (inactive) | 14.8 µM (inactive) | 17.6 µM (inactive) | 19.3 µM (inactive) |
| CN(C)c1n/c(=N/Cc2ccco2)ss1 | 25.6 µM (inactive) | > 66.5 µM (inactive) | 20.5 µM (inactive) | 15.5 µM (inactive) | 3.65 µM (inactive) | 31.5 µM (inactive) | 10.9 µM (inactive) | > 40.5 µM (inactive) | 30.3 µM (inactive) | 14.3 µM (inactive) | 3.72 µM (inactive) | 52.8 µM (inactive) | 26.2 µM (inactive) | > 54.8 µM (inactive) | 62.2 µM (inactive) | 18.5 µM (inactive) | 2.06 µM (inactive) | 5.32 µM (inactive) | 28.8 µM (inactive) | 46.5 µM (inactive) |
| CC(OCc1ccccc1)C(NC(=O)C1CSSCC(NC(=O)C(Cc2ccccc2)NC(=O)OCc2ccccc2)C(=O)NC(Cc2ccccc2)C(=O)NC(Cc2cn(C=O)c3ccccc23)C(=O)NC(CCCCNC(=O)OCc2ccccc2)C(=O)NC(C(C)OCc2ccccc2)C(=O)N1)C(N)=O (stereo not given) | 33.4 µM (inactive) | 30.5 µM (inactive) | 22.1 µM (inactive) | 19.1 µM (inactive) | 24.9 µM (inactive) | 25.1 µM (inactive) | 22.5 µM (inactive) | 45 µM (inactive) | > 43.5 µM (inactive) | 13.3 µM (inactive) | 3.91 µM (inactive) | 7.43 µM (inactive) | 13.4 µM (inactive) | 22.6 µM (inactive) | > 75 µM (inactive) | 20 µM (inactive) | 3.03 µM (inactive) | 72.6 µM (inactive) | 78.3 µM (inactive) | 44 µM (inactive) |
